Literature values in article PMC8513424 (Laryngoscope Investigative Otolaryngology, 2021).

Key:
[1] = tested on: isogenic VS‐ and meningioma‐related cell lines with or without NF2 expression; conditions: among 19 small molecules; cited from earlier work
[2] = tested on: meningiomas; conditions: cited from earlier work

In the case of `COc1ccc(-c2nc(N3CCOCC3)c3sc(CN(C)c4ncc(C(=O)NO)cn4)cc3n2)cn1` [CUDC‐907], the “Activity across schwannoma and meningioma cell models” value [1] is listed as “greatest activity”.
For bevacizumab, the Response of meningiomas [2] is listed as “do not respond”.
In the case of `Cc1[nH]c2ccccc2c1CCNCc1ccc(/C=C/C(=O)NO)cc1` [panobinostat], the “Activity across schwannoma and meningioma cell models” value [1] is given as “greatest activity”.
